From US12448400B2, “KRAS G12D modulating compounds” (priority 2023, dated 2025) come the findings set out here.

One series has as its target GDP-loaded KRAS G12D (Homo sapiens, UniProt P01116, G12D). Nature of the series: KRAS G12D (GDP) biochemical assay, TR-FRET probe displacement. Format: binding. To be noted: 0.5 nM enzyme, 30 min pre-incubation, 2 h incubation, TR-FRET ratio; read-out: G12D IC50. In outline: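 Compound pre-incubated 30 min with GDP-loaded KRAS G12D in 50 mM Hepes pH 7.4, 150 mM NaCl, 5 mM MgCl2, 0.005% Tween-20, then Eu-streptavidin and TR-FRET probe added. After 2 h at room temperature, TR-FRET ratio read; IC50 is 50% ratio decrease, sigmoidal fit.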

A further series has as its system GP2D (KRAS G12D) cells. Nature of the series: 2D cell viability assay (CellTiter-Glo). The series is classed as cell-based. To be noted: 96 h; GP2D cells, 4 days, CellTiter-Glo luminescence; read-out: G12D 2D EC50. An outline of the steps:
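GP2D (KRAS G12D) cells, 1000/well in RPMI + 10% FBS, were plated onto compound (1:3 DMSO series) and grown 4 days at 37 °C, 5% CO2 in 2D. CellTiter-Glo luminescence was read; EC50 is the concentration giving 50% signal decrease, from sigmoidal fit.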
Background: In ATP-based viability assays light output follows the ATP content of the culture.

Series [1] is described as follows: Mouse oral cassette pharmacokinetics. Format: in vivo, male CD-1 mice. Conditions: male, CD-1, mouse, in vivo, po, 30 mg/kg. The method, then:
Mouse Oral Cassette Pharmacokinetics
Test compounds (1-3 compounds per cassette) were formulated in solution formulations (10 w/v % Captisol in 50 mM Citrate buffer) and administered orally at 30 mg-eq./kg each compound to a group of four male CD-1 mice. The test articles were administrated by oral gavage at a dose volume of 10 mL-eq/kg.
Blood samples were collected at 0.5, 1, 3, 6, 8, and 24 hours post dose into K2EDTA tubes and stored on wet ice until processed. Whole blood was processed to plasma by centrifugation (3500 rpm for 10 minutes at 5° C.) within 30 minutes of collection. Plasma samples were placed in Micronic 96 well tubes and stored at −80° C. until transferred. Plasma concentration of the test compounds was determined by LC-MS/MS. Pharmacokinetic parameters were estimated using non-compartment model analysis. The maximum observed concentration (Cmax) and area under the curve from time of dosing to last measured concentration (AUClast) were calculated and reported.

The structures appear in SMILES notation. pEC50, pIC50: −log10 of the molar value.

Sequence of GDP-loaded KRAS G12D (P01116 1-188 isoform P01116-2 G12D): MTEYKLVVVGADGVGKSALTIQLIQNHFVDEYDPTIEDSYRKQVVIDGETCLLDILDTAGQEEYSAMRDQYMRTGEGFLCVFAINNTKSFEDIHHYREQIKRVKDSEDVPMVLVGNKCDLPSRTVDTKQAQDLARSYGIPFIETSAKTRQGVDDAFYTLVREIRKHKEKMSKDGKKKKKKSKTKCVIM

`C#Cc1c(F)ccc2cc(O)cc(-c3nc4c5c(nc(OC[C@@]67CCCN6C[C@H](F)C7)nc5c3F)N3C[C@H]5CC[C@@H]([C@H]3CCC4)N5Cc3oc(=O)oc3C(C)(C)C)c12` [Example 9, 4-(tert-butyl)-5-(((6aR,7S,10R)-2-(8-ethynyl-7-fluoro-3-hydroxynaphthalen-1-yl)-1-fluoro-13-(((2R,7aS)-2-fluorotetrahydro-1H-pyrrolizin-7a(5H)-yl)methoxy)-5,6,6a,7,8,9,10,11-octahydro-4H-3,11a,12,14,15-pentaaza-7,10-methanocyclohepta[4,5]cycloocta[1,2,3-de]naphthalen-15-yl)methyl)-1,3-dioxol-2-one]: the negative logarithm of the IC50 (pIC50) at GDP-loaded KRAS G12D is 7.92. Besides, the negative logarithm of the EC50 (pEC50) in the series with GP2D (KRAS G12D) cells was 8.72. Moreover, the “Mouse Parent AUC” value in series [1] is 0.16 µM·h.

Turning to `C#Cc1c(F)ccc2cc(O)cc(-c3nc4c5c(nc(OC[C@@]67CCCN6C[C@H](F)C7)nc5c3F)N3C[C@H]5CC[C@@H]([C@H]3CCC4)N5Cc3oc(=O)oc3CCCCCCCC)c12` [Example 10, 4-(((6aR,7S,10R)-2-(8-ethynyl-7-fluoro-3-hydroxynaphthalen-1-yl)-1-fluoro-13-(((2R,7aS)-2-fluorotetrahydro-1H-pyrrolizin-7a(5H)-yl)methoxy)-5,6,6a,7,8,9,10,11-octahydro-4H-3,11a,12,14,15-pentaaza-7,10-methanocyclohepta[4,5]cycloocta[1,2,3-de]naphthalen-15-yl)methyl)-5-octyl-1,3-dioxol-2-one], the pIC50 on GDP-loaded KRAS G12D was 8.11. In addition, the negative logarithm of the EC50 (pEC50) with GP2D (KRAS G12D) cells was 9.80. For the same compound, the “Mouse Parent AUC” value in series [1] worked out at 0.44 µM·h.

`C#Cc1c(F)ccc2cc(O)cc(-c3nc4c5c(nc(OC[C@@]67CCCN6C[C@H](F)C7)nc5c3F)N3C[C@H]5CC[C@@H]([C@H]3CC[C@H]4C)N5Cc3oc(=O)oc3C)c12` [Example 11, 4-(((4R,6aR,7S,10R)-2-(8-ethynyl-7-fluoro-3-hydroxynaphthalen-1-yl)-1-fluoro-13-(((2R,7aS)-2-fluorotetrahydro-1H-pyrrolizin-7a(5H)-yl)methoxy)-4-methyl-5,6,6a,7,8,9,10,11-octahydro-4H-3,11a,12,14,15-pentaaza-7,10-methanocyclohepta[4,5]cycloocta[1,2,3-de]naphthalen-15-yl)methyl)-5-methyl-1,3-dioxol-2-one]: the pIC50 at GDP-loaded KRAS G12D is 8.36. For the same compound, in the series on GP2D (KRAS G12D) cells, the pEC50 is 9.92. In addition, the “Mouse Parent AUC” value in series [1] amounted to 0.96 µM·h.

With `C#Cc1c(F)ccc2cc(O)cc(-c3nc4c5c(nc(OC[C@@]67CCCN6C[C@H](F)C7)nc5c3F)N3C[C@H]5CC[C@H](N5)[C@H]3CC[C@H]4C)c12` [Example 11-P, 5-ethynyl-6-fluoro-4-((4R,6aR,7S,10R)-1-fluoro-13-(((2R,7aS)-2-fluorotetrahydro-1H-pyrrolizin-7a(5H)-yl)methoxy)-4-methyl-5,6,6a,7,8,9,10,11-octahydro-4H-3,11a,12,14,15-pentaaza-7,10-methanocyclohepta[4,5]cycloocta[1,2,3-de]naphthalen-2-yl)naphthalen-2-ol], the negative logarithm of the IC50 (pIC50) on GDP-loaded KRAS G12D was 10.05. The pEC50 in the series on GP2D (KRAS G12D) cells was 10.05. For the same compound, the “Mouse Parent AUC” value in series [1] amounted to 0.14 µM·h.

For the compound `C#Cc1c(F)ccc2cc(O)cc(-c3nc4c5c(nc(OC[C@@]67CCCN6C[C@H](F)C7)nc5c3F)N3C[C@H]5CC[C@@H]([C@H]3CC[C@H]4C)N5Cc3oc(=O)oc3C(C)(C)C)c12` [Example 12, 4-(tert-butyl)-5-(((4R,6aR,7S,10R)-2-(8-ethynyl-7-fluoro-3-hydroxynaphthalen-1-yl)-1-fluoro-13-(((2R,7aS)-2-fluorotetrahydro-1H-pyrrolizin-7a(5H)-yl)methoxy)-4-methyl-5,6,6a,7,8,9,10,11-octahydro-4H-3,11a,12,14,15-pentaaza-7,10-methanocyclohepta[4,5]cycloocta[1,2,3-de]naphthalen-15-yl)methyl)-1,3-dioxol-2-one], the pIC50 at GDP-loaded KRAS G12D was 7.14. In the series on GP2D (KRAS G12D) cells, the pEC50 is 9.55. Further, in series [1], the “Mouse Parent AUC” value amounted to 0.2 µM·h.

Take `C#Cc1c(F)ccc2cc(O)cc(-c3nc4c5c(nc(OC[C@@]67CCCN6C[C@H](F)C7)nc5c3F)N3C[C@H]5CC[C@@H]([C@H]3CC[C@H]4C)N5Cc3oc(=O)oc3CCCCCCCC)c12` [Example 13, 4-(((4R,6aR,7S,10R)-2-(8-ethynyl-7-fluoro-3-hydroxynaphthalen-1-yl)-1-fluoro-13-(((2R,7aS)-2-fluorotetrahydro-1H-pyrrolizin-7a(5H)-yl)methoxy)-4-methyl-5,6,6a,7,8,9,10,11-octahydro-4H-3,11a,12,14,15-pentaaza-7,10-methanocyclohepta[4,5]cycloocta[1,2,3-de]naphthalen-15-yl)methyl)-5-octyl-1,3-dioxol-2-one]: at GDP-loaded KRAS G12D, the negative-log IC50 (pIC50) was 7.62. Further, in the series on GP2D (KRAS G12D) cells, the negative logarithm of the EC50 (pEC50) was 9.72. Moreover, in series [1], the “Mouse Parent AUC” value came to 0.42 µM·h.

On to `C#Cc1c(F)ccc2cc(O)cc(-c3nc4c5c(nc(OC[C@@]67CCCN6C[C@H](F)C7)nc5c3F)N3C[C@H]5CC[C@@H]([C@H]3CCC4)N5Cc3oc(=O)oc3CCCCCC)c12` [Example 14, 4-(((6aR,7S,10R)-2-(8-ethynyl-7-fluoro-3-hydroxynaphthalen-1-yl)-1-fluoro-13-(((2R,7aS)-2-fluorotetrahydro-1H-pyrrolizin-7a(5H)-yl)methoxy)-5,6,6a,7,8,9,10,11-octahydro-4H-3,11a,12,14,15-pentaaza-7,10-methanocyclohepta[4,5]cycloocta[1,2,3-de]naphthalen-15-yl)methyl)-5-hexyl-1,3-dioxol-2-one], for which the pIC50 at GDP-loaded KRAS G12D was 8.14. Besides, the pEC50 in the series with GP2D (KRAS G12D) cells was 9.85. Further, the “Mouse Parent AUC” value in series [1] was 0.94 µM·h.

For `C#Cc1c(F)ccc2cc(O)cc(-c3nc4c5c(nc(OC[C@@]67CCCN6C[C@H](F)C7)nc5c3F)N3C[C@H]5CC[C@@H]([C@H]3CCC4)N5Cc3oc(=O)oc3C3CCCCC3)c12` [Example 15, 4-cyclohexyl-5-(((6aR,7S,10R)-2-(8-ethynyl-7-fluoro-3-hydroxynaphthalen-1-yl)-1-fluoro-13-(((2R,7aS)-2-fluorotetrahydro-1H-pyrrolizin-7a(5H)-yl)methoxy)-5,6,6a,7,8,9,10,11-octahydro-4H-3,11a,12,14,15-pentaaza-7,10-methanocyclohepta[4,5]cycloocta[1,2,3-de]naphthalen-15-yl)methyl)-1,3-dioxol-2-one], the pIC50 on GDP-loaded KRAS G12D was 8.10. Also, the pEC50 in the series on GP2D (KRAS G12D) cells is 9.70. In addition, the “Mouse Parent AUC” value in series [1] is 0.25 µM·h.

Consider `C#Cc1c(F)ccc2cc(O)cc(-c3nc4c5c(nc(OC[C@@]67CCCN6C[C@H](F)C7)nc5c3F)N3C[C@H]5CC[C@@H]([C@H]3CC[C@H]4C)N5Cc3oc(=O)oc3CCCCCC)c12` [Example 16, 4-(((4R,6aR,7S,10R)-2-(8-ethynyl-7-fluoro-3-hydroxynaphthalen-1-yl)-1-fluoro-13-(((2R,7aS)-2-fluorotetrahydro-1H-pyrrolizin-7a(5H)-yl)methoxy)-4-methyl-5,6,6a,7,8,9,10,11-octahydro-4H-3,11a,12,14,15-pentaaza-7,10-methanocyclohepta[4,5]cycloocta[1,2,3-de]naphthalen-15-yl)methyl)-5-hexyl-1,3-dioxol-2-one], for which, at GDP-loaded KRAS G12D, the pIC50 was 7.40. Besides, the negative-log EC50 (pEC50) in the series on GP2D (KRAS G12D) cells was 9.80. For the same compound, in series [1], the “Mouse Parent AUC” value was 0.95 µM·h.

For the compound `C#Cc1c(F)ccc2cc(O)cc(-c3nc4c5c(nc(OC[C@@]67CCCN6C[C@H](F)C7)nc5c3F)N3C[C@H]5CC[C@@H]([C@H]3CC[C@H]4C)N5Cc3oc(=O)oc3C3CCCCC3)c12` [Example 17, 4-cyclohexyl-5-(((4R,6aR,7S,10R)-2-(8-ethynyl-7-fluoro-3-hydroxynaphthalen-1-yl)-1-fluoro-13-(((2R,7aS)-2-fluorotetrahydro-1H-pyrrolizin-7a(5H)-yl)methoxy)-4-methyl-5,6,6a,7,8,9,10,11-octahydro-4H-3,11a,12,14,15-pentaaza-7,10-methanocyclohepta[4,5]cycloocta[1,2,3-de]naphthalen-15-yl)methyl)-1,3-dioxol-2-one], the negative logarithm of the IC50 (pIC50) on GDP-loaded KRAS G12D is 7.32. For the same compound, in the series on GP2D (KRAS G12D) cells, the negative logarithm of the EC50 (pEC50) was 9.70. Also, the “Mouse Parent AUC” value in series [1] turned out to be 0.161 µM·h.

On to `C#Cc1c(F)ccc2cc(N)cc(-c3nc4c5c(nc(OC[C@@]67CCCN6C[C@H](F)C7)nc5c3F)N3C[C@H]5CC[C@H](N5)[C@H]3CCC4)c12` [Example 69-P, 5-ethynyl-6-fluoro-4-((6aR,7S,10R)-1-fluoro-13-(((2R,7aS)-2-fluorotetrahydro-1H-pyrrolizin-7a(5H)-yl)methoxy)-5,6,6a,7,8,9,10,11-octahydro-4H-3,11a,12,14,15-pentaaza-7,10-methanocyclohepta[4,5]cycloocta[1,2,3-de]naphthalen-2-yl)naphthalen-2-amine], for which, on GDP-loaded KRAS G12D, the negative-log IC50 (pIC50) was 10.15. Moreover, in the series on GP2D (KRAS G12D) cells, the pEC50 is 9.30. In addition, in series [1], the “Mouse Parent AUC” value stood at 0.5 µM·h.

Broadly, the pIC50 is the IC50 on a negative log10 scale, so that one unit is a factor of ten. A word on the pEC50: it is the EC50 on a negative log10 scale, so that one unit is a factor of ten.
